# Experimental data from PubChem BioAssay AID2060621 (Molecular Pharmacology Branch, DTP, NCI, 2025).
# System: 324938-238-R-J1-PDC complex spheroids viability
# Test: Anticancer human tumor 324938-238-R-J1-PDC patient-derived bladder carcinoma cell line growth inhibition [CLK]
# Conditions: for IC50: curve of first compound; for viability, T/C: stronger effect = lower value
# In short: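 Patient-derived tumor cells grown as complex spheroids with HUVEC endothelial cells and mesenchymal stem cells, treated with drug combinations. Concentrations descend in half-log steps from near clinical Cmax, or from 10 microM if Cmax unknown.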
# [1] = second compound 0.0316 µM, first compound 0.0316 µM
# [2] = second compound 0.0316 µM, first compound 0.1 µM
# [3] = second compound 0.0316 µM, first compound 0.316 µM
# [4] = second compound 0.0316 µM, first compound 1 µM
# [5] = second compound 0.0316 µM, first compound 3.16 µM
# [6] = second compound 0.0316 µM, first compound 10 µM
# [7] = second compound 0.1 µM, first compound 0.0316 µM
# [8] = second compound 0.1 µM, first compound 0.1 µM
# [9] = second compound 0.1 µM, first compound 0.316 µM
# [10] = second compound 0.1 µM, first compound 1 µM
# [11] = second compound 0.1 µM, first compound 3.16 µM
# [12] = second compound 0.1 µM, first compound 10 µM
# [13] = second compound 0.316 µM, first compound 0.0316 µM
# [14] = second compound 0.316 µM, first compound 0.1 µM
# [15] = second compound 0.316 µM, first compound 0.316 µM
# [16] = second compound 0.316 µM, first compound 1 µM
# [17] = second compound 0.316 µM, first compound 3.16 µM
# [18] = second compound 0.316 µM, first compound 10 µM
# [19] = second compound 1 µM, first compound 0.0316 µM
# [20] = second compound 1 µM, first compound 0.1 µM
# [21] = second compound 1 µM, first compound 0.316 µM
# [22] = second compound 1 µM, first compound 1 µM
# [23] = second compound 1 µM, first compound 3.16 µM
# [24] = second compound 1 µM, first compound 10 µM
# [25] = second compound 3.16 µM, first compound 0.0316 µM
# [26] = second compound 3.16 µM, first compound 0.1 µM
# [27] = second compound 3.16 µM, first compound 0.316 µM
# [28] = second compound 3.16 µM, first compound 1 µM
# [29] = second compound 3.16 µM, first compound 3.16 µM
# [30] = second compound 3.16 µM, first compound 10 µM
# [31] = second compound 10 µM, first compound 0.0316 µM
# [32] = second compound 10 µM, first compound 0.1 µM
# [33] = second compound 10 µM, first compound 0.316 µM
# [34] = second compound 10 µM, first compound 1 µM
# [35] = second compound 10 µM, first compound 3.16 µM
# [36] = second compound 10 µM, first compound 10 µM
# 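Note: viability read after seven days of drug exposure.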
# 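Throughout, for viability, T/C: 100% = DMSO vehicle control wells.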
compound,measurement,setting,value
CC(C)CC(NC(=O)C(Cc1ccccc1)NC(=O)c1cnccn1)B(O)O (stereo unspecified) + CN1CCN(c2cc(C(=O)Nc3cc4cc(-c5cnn(C)c5)ccc4cn3)ccn2)CC1,IC50,second compound 0.0316 µM,1.29 nM
same,IC50,second compound 0.1 µM,< 0.949 nM
same,IC50,second compound 0.316 µM,< 0.949 nM
same,IC50,second compound 1 µM,< 0.949 nM
same,IC50,second compound 3.16 µM,< 0.949 nM
same,IC50,second compound 10 µM,< 0.949 nM
same,"viability, T/C","second compound 0.0316 µM, first compound 0.000949 µM",67%
same,"viability, T/C","second compound 0.0316 µM, first compound 0.003 µM",2.89%
same,"viability, T/C","second compound 0.0316 µM, first compound 0.00949 µM",0.33%
same,"viability, T/C","second compound 0.0316 µM, first compound 0.03 µM",0.33%
same,"viability, T/C","second compound 0.0316 µM, first compound 0.0949 µM",0.22%
same,"viability, T/C","second compound 0.0316 µM, first compound 0.3 µM",0.18%
same,"viability, T/C","second compound 0.1 µM, first compound 0.000949 µM",46.9%
same,"viability, T/C","second compound 0.1 µM, first compound 0.003 µM",2.21%
same,"viability, T/C","second compound 0.1 µM, first compound 0.00949 µM",0.38%
same,"viability, T/C","second compound 0.1 µM, first compound 0.03 µM",0.33%
same,"viability, T/C","second compound 0.1 µM, first compound 0.0949 µM",0.18%
same,"viability, T/C","second compound 0.1 µM, first compound 0.3 µM",0.32%
same,"viability, T/C","second compound 0.316 µM, first compound 0.000949 µM",11.1%
same,"viability, T/C","second compound 0.316 µM, first compound 0.003 µM",0.71%
same,"viability, T/C","second compound 0.316 µM, first compound 0.00949 µM",0.31%
same,"viability, T/C","second compound 0.316 µM, first compound 0.03 µM",0.2%
same,"viability, T/C","second compound 0.316 µM, first compound 0.0949 µM",0.15%
same,"viability, T/C","second compound 0.316 µM, first compound 0.3 µM",0.17%
same,"viability, T/C","second compound 1 µM, first compound 0.000949 µM",0.28%
same,"viability, T/C","second compound 1 µM, first compound 0.003 µM",0.27%
same,"viability, T/C","second compound 1 µM, first compound 0.00949 µM",0.18%
same,"viability, T/C","second compound 1 µM, first compound 0.03 µM",0.16%
same,"viability, T/C","second compound 1 µM, first compound 0.0949 µM",0.44%
same,"viability, T/C","second compound 1 µM, first compound 0.3 µM",0.22%
same,"viability, T/C","second compound 3.16 µM, first compound 0.000949 µM",0.23%
same,"viability, T/C","second compound 3.16 µM, first compound 0.003 µM",0.24%
same,"viability, T/C","second compound 3.16 µM, first compound 0.00949 µM",0.24%
same,"viability, T/C","second compound 3.16 µM, first compound 0.03 µM",0.1%
same,"viability, T/C","second compound 3.16 µM, first compound 0.0949 µM",0.18%
same,"viability, T/C","second compound 3.16 µM, first compound 0.3 µM",0.17%
same,"viability, T/C","second compound 10 µM, first compound 0.000949 µM",0.71%
same,"viability, T/C","second compound 10 µM, first compound 0.003 µM",0.21%
same,"viability, T/C","second compound 10 µM, first compound 0.00949 µM",0.18%
same,"viability, T/C","second compound 10 µM, first compound 0.03 µM",0.22%
same,"viability, T/C","second compound 10 µM, first compound 0.0949 µM",0.26%
same,"viability, T/C","second compound 10 µM, first compound 0.3 µM",0.25%
CC1COCCN1c1cc(C2(S(C)(=N)=O)CC2)nc(-c2ccnc3[nH]ccc23)n1 (stereo unspecified) + CN1CCN(c2cc(C(=O)Nc3cc4cc(-c5cnn(C)c5)ccc4cn3)ccn2)CC1,IC50,second compound 0.0316 µM,1100 nM
same,IC50,second compound 0.1 µM,400 nM
same,IC50,second compound 0.316 µM,< 31.6 nM
same,IC50,second compound 1 µM,< 31.6 nM
same,IC50,second compound 3.16 µM,< 31.6 nM
same,IC50,second compound 10 µM,< 31.6 nM
same,"viability, T/C",[1],80.1%
same,"viability, T/C",[2],79.7%
same,"viability, T/C",[3],70%
same,"viability, T/C",[4],51.8%
same,"viability, T/C",[5],28.8%
same,"viability, T/C",[6],14.8%
same,"viability, T/C",[7],55.3%
same,"viability, T/C",[8],52.7%
same,"viability, T/C",[9],55.3%
same,"viability, T/C",[10],39.8%
same,"viability, T/C",[11],22.9%
same,"viability, T/C",[12],11.5%
same,"viability, T/C",[13],24.8%
same,"viability, T/C",[14],24.1%
same,"viability, T/C",[15],19%
same,"viability, T/C",[16],21.9%
same,"viability, T/C",[17],16.1%
same,"viability, T/C",[18],11.4%
same,"viability, T/C",[19],1.54%
same,"viability, T/C",[20],1.37%
same,"viability, T/C",[21],1.72%
same,"viability, T/C",[22],1.08%
same,"viability, T/C",[23],1.06%
same,"viability, T/C",[24],0.6%
same,"viability, T/C",[25],0.25%
same,"viability, T/C",[26],0.15%
same,"viability, T/C",[27],0.19%
same,"viability, T/C",[28],0.16%
same,"viability, T/C",[29],0.16%
same,"viability, T/C",[30],1.37%
same,"viability, T/C",[31],0.16%
same,"viability, T/C",[32],0.17%
same,"viability, T/C",[33],0.21%
same,"viability, T/C",[34],0.16%
same,"viability, T/C",[35],0.22%
same,"viability, T/C",[36],0.22%
O=C(c1cc(Cc2n[nH]c(=O)c3ccccc23)ccc1F)N1CCN(C(=O)C2CC2)CC1 + CN1CCN(c2cc(C(=O)Nc3cc4cc(-c5cnn(C)c5)ccc4cn3)ccn2)CC1,IC50,second compound 0.0316 µM,4050 nM
same,IC50,second compound 0.1 µM,< 31.6 nM
same,IC50,second compound 0.316 µM,< 31.6 nM
same,IC50,second compound 1 µM,< 31.6 nM
same,IC50,second compound 3.16 µM,< 31.6 nM
same,IC50,second compound 10 µM,< 31.6 nM
same,"viability, T/C",[1],76.9%
same,"viability, T/C",[2],76.8%
same,"viability, T/C",[3],65.2%
same,"viability, T/C",[4],70.5%
same,"viability, T/C",[5],55.5%
same,"viability, T/C",[6],29.6%
same,"viability, T/C",[7],46.9%
same,"viability, T/C",[8],50.8%
same,"viability, T/C",[9],42.5%
same,"viability, T/C",[10],49.2%
same,"viability, T/C",[11],36.4%
same,"viability, T/C",[12],19.4%
same,"viability, T/C",[13],20.6%
same,"viability, T/C",[14],24.1%
same,"viability, T/C",[15],19.9%
same,"viability, T/C",[16],19.9%
same,"viability, T/C",[17],18.9%
same,"viability, T/C",[18],16.4%
same,"viability, T/C",[19],1.69%
same,"viability, T/C",[20],1.71%
same,"viability, T/C",[21],1.98%
same,"viability, T/C",[22],1.94%
same,"viability, T/C",[23],2.27%
same,"viability, T/C",[24],1.74%
same,"viability, T/C",[25],0.26%
same,"viability, T/C",[26],0.21%
same,"viability, T/C",[27],0.25%
same,"viability, T/C",[28],0.1%
same,"viability, T/C",[29],0.36%
same,"viability, T/C",[30],0.49%
same,"viability, T/C",[31],0.11%
same,"viability, T/C",[32],0.21%
same,"viability, T/C",[33],0.24%
same,"viability, T/C",[34],0.17%
same,"viability, T/C",[35],0.26%
same,"viability, T/C",[36],0.28%
